How the values were obtained:
[1] = molecular target: T1, scavenger receptor SR-A1 (Mus musculus, UniProt P30204); test: Carbamylated LDL binding studies with SR-A1 transfected cells / SR-A1 inhibitor; format: cell-based, murine; settings: data not shown
T1 construct: expressed in transfected cells; host or cells: CHO cells, stably transfected
T1 sequence (P30204 1-458): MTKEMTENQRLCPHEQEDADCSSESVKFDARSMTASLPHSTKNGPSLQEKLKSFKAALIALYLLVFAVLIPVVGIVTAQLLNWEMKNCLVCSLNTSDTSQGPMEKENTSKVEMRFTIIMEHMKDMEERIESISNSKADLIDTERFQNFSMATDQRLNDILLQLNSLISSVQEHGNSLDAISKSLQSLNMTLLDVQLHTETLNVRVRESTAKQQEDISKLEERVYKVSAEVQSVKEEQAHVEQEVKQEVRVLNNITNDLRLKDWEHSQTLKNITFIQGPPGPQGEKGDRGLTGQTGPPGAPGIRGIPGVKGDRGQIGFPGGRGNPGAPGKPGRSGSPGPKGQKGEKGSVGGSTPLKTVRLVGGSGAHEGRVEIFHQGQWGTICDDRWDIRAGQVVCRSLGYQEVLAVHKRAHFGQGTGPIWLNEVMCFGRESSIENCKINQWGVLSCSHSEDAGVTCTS

[2] = tested on: aortic smooth muscle cells (both human and bovine); test: Aortic smooth muscle cell proliferation; format: cell-based; settings: SR-A1 inhibitor present in culture media
Description: 1,1′-dioctadecyl-3,3,3′,3′-tetramethylyindocarbocyanine perchlorate (DiI) was obtained from Molecular Probes (Eugene, Oreg.). Organic solvents were obtained from Fisher Scientific Co. (Pittsburgh, Pa.). Caspase-3/7 assay kit (Lot #220150) was purchased from Promega (Madison, Wis.) and cell proliferation ELISA, BrdU (colorimetric) kit (Lot #11647229001) was from Roche (Indianapolis, Ind.). All other reagents and materials were obtained from Sigma Chemical Co. (St. Louis, Mo.) unless otherwise indicated. Protein content was determined by the Markwell-modified Lowry protein assay^44. Human LDL and HDL were isolated from whole blood of healthy volunteers by established methods^45. Human myeloperoxidase (MPO) (donor: hydrogen peroxide, oxidoreductase, EC 1.11.1.7), NO2-LDL and AcLDL were prepared as described in Podrez et al^14.
In a separate series of studies, we therefore examined the impact of MPO-catalyzed lipoprotein carbamylation on these processes.

[3] = tested on: homocitrulline levels; test: Effect of simvastatin on plasma levels of homocitrulline (randomized placebo-controlled study); format: in vivo, human; settings: 6 weeks of treatment
Experimental: This study was intended to evaluate the effect of statin therapy on homocitrulline levels. Specimens came from archival materials from a randomized, double-blind, parallel-group, 4-arm, placebo-controlled, multi-center study conducted in 1997. Prior to randomization, subjects underwent a 4-week diet/placebo run-in period. Eligible patients were then randomized to 1 of 4 treatments (ratio 1:1:1:1): placebo, simvastatin 20, 40, or 80 mg, and received 6 weeks of treatment. One hundred and eighty eight out of 195 enrolled men and women completed the study. Subjects were required to have elevated TG (300 to 900 mg/dL), and many had comorbidities associated with the metabolic syndrome; however, though those with morbid obesity, uncontrolled hypertension, or severe hyperlipidemia were excluded. Archived serum and/or plasma that were drawn predose on Day 1 and on Day 42 were used in this analysis.

Molecule | inhibition of specific binding of carbamylated LDL [1] | effect on proliferation induced by carbamylated LDL [2] | Median % Change (SD) of homocitrulline ([3]; simvastatin 20 mg, Day 42 vs predose Day 1, archived serum and/or plasma) | Median % Change (SD) of homocitrulline ([3]; simvastatin 40 mg, Day 42 vs predose Day 1, archived serum and/or plasma) | Median % Change (SD) of homocitrulline ([3]; simvastatin 80 mg, Day 42 vs predose Day 1, archived serum and/or plasma) | Median % Change (SD) of homocitrulline ([3]; simvastatin combined (20, 40, 80 mg), Day 42 vs predose Day 1)
fucoidin | over 80% | markedly suppressed |  |  |  | 
CCC(C)(C)C(=O)O[C@H]1C[C@@H](C)C=C2C=C[C@H](C)[C@H](CC[C@@H]3C[C@@H](O)CC(=O)O3)[C@H]21 [Simvastatin, simvastatin] |  |  | −100.0 (102.67) % | −100.0 (67.77) % | −63.44 (89.63) % | −100.0 (84.03) %

— patent publication US9086425B2, “Carbamylated proteins and risk of cardiovascular disease” (The Cleveland Clinic Foundation, priority 2007, dated 2015)
